Test results taken from patent US8133849B2, “Herbicidal compounds” (Syngenta Limited, priority 2007, dated 2012).

Assays:
Assay in all cases: Example B2 herbicidal action, post-emergence, pots in glasshouse, damage score 0-10
Format in all cases: in vivo
Conditions in all cases: application post-emergence, rate 1000 g/ha, evaluated after 13 days
Amaranthus retroflexus = test system: Amaranthus retroflexus
Procedure, shortened: (§1)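 Evaluation took place 13 days post-spray. Treatment used an acetone/water (50:50), 0.5% Tween 20 formulation applied to 8-day-old potted plants, held at 24/16 °C with 14 h light, 65% humidity and twice-daily watering.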

Echinochloa crus-galli = test system: Echinochloa crus-galli
Procedure, shortened: as §1

Ipomea hederaceae = test system: Ipomea hederaceae
Procedure, shortened: as §1

Setaria faberi = test system: Setaria faberi
Procedure, shortened: as §1

Solanum nigrum = test system: Solanum nigrum
Procedure, shortened: as §1

Row | SMILES | AMARE damage score (10=total damage to plant; 0=no damage to plant) (Amaranthus retroflexus) | ECHCG damage score (10=total damage to plant; 0=no damage to plant) (Echinochloa crus-galli) | IPOHE damage score (10=total damage to plant; 0=no damage to plant) (Ipomea hederaceae) | SETFA damage score (10=total damage to plant; 0=no damage to plant) (Setaria faberi) | SOLNI damage score (10=total damage to plant; 0=no damage to plant) (Solanum nigrum)
1 | CC#CCN1c2nccnc2C(OC(=O)C(C)(C)C)=C(c2c(Cl)ccc(Cl)c2C(F)(F)F)S1(=O)=O [Compound C96] | 0 | 1 | 4 | 0 | 7
2 | CC(C)(C)C(=O)OC1=C(c2ccc(-c3ccc(Cl)cc3F)cc2Cl)S(=O)(=O)N(CC(F)F)c2nccnc21 [Compound C142] | 4 | 1 | 3 | 0 | 6
3 | O=S1(=O)C(c2ccccc2Br)=C(O)c2nccnc2N1CC(F)F [Compound D18] | 10 | 4 | 10 | 5 | 10
4 | CCN1c2nccnc2C(OC(=O)C(C)C)=C(c2c(Cl)ccc(Cl)c2C(F)(F)F)S1(=O)=O [Compound C50] | 5 | 5 | 7 | 4 | 6
5 | CC(C)(C)C(=O)OC1=C(c2c(Cl)cccc2Cl)S(=O)(=O)N(CC(F)F)c2nccnc21 [Compound C28] | 7 | 2 | 6 | 2 | 6
6 | CCSC(=O)OC1=C(c2cc(C(F)(F)F)ccc2Br)S(=O)(=O)N(CC(F)F)c2nccnc21 [Compound C60] | 10 | 7 | 10 | 1 | 10
7 | CCN1c2nccnc2C(OC(=O)C(C)(C)C)=C(c2cc(C(F)(F)F)ccc2Br)S1(=O)=O [Compound C69] | 4 | 2 | 7 | 0 | 6
8 | CCSC(=O)OC1=C(c2c(F)ccc(Br)c2Cl)S(=O)(=O)N(CC(F)F)c2nccnc21 [Compound C107] | 5 | 5 | 6 | 3 | 7
9 | CCN1c2nccnc2C(OC(=O)C(C)(C)C)=C(c2cccc(Cl)c2Cl)S1(=O)=O [Compound C98] | 0 | 0 | 0 | 0 | 3
10 | CCN1c2nccnc2C(OC(=O)C(C)C)=C(c2ccc(Cl)c(Cl)c2)S1(=O)=O [Compound C26] | 9 | 0 | 0 | 0 | 0
11 | C#CCN1c2nccnc2C(O)=C(c2c(Cl)ccc(Cl)c2C(F)(F)F)S1(=O)=O [Compound D45] | 8 | 6 | 8 | 6 | 9
12 | CC(C)C(=O)OC1=C(c2cc(Cl)ccc2C(F)(F)F)S(=O)(=O)N(CC(F)F)c2nccnc21 [Compound C113] | 8 | 7 | 9 | 6 | 10
13 | CN1c2nccnc2C(O)=C(c2c(Cl)ccc(Cl)c2Cl)S1(=O)=O [Compound D47] | 8 | 4 | 8 | 1 | 10
14 | O=S1(=O)C(c2cccc(C(F)(F)F)c2Cl)=C(O)c2nccnc2N1CC(F)F [Compound D37] | 10 | 3 | 10 | 5 | 9
15 | C=CCN1c2nccnc2C(O)=C(c2cc(Cl)ccc2C(F)(F)F)S1(=O)=O [Compound D54] | 2 | 3 | 4 | 3 | 7
16 | Cc1ccc(C(F)(F)F)c(C2=C(O)c3nccnc3N(CC(F)F)S2(=O)=O)c1 [Compound D41] | 9 | 1 | 9 | 2 | 10
17 | CC(C)C(=O)OC1=C(c2ccc(Cl)cc2Cl)S(=O)(=O)N(CC(Cl)Cl)c2nccnc21 [Compound C116] | 10 | 2 | 6 | 3 | 10
18 | CSC(=O)OC1=C(c2c(Cl)ccc(Cl)c2Cl)S(=O)(=O)N(CC(F)F)c2nccnc21 [Compound C130] | 10 | 8 | 10 | 7 | 10
19 | CC(C)C(=O)OC1=C(c2ccc(Cl)cc2Cl)S(=O)(=O)N(CC(F)(F)F)c2nccnc21 [Compound C57] | 10 | 4 | 10 | 3 | 10
20 | C=C(C)CN1c2nccnc2C(OC(=O)C(C)(C)C)=C(c2cccc(Cl)c2Cl)S1(=O)=O [Compound C140] | 0 | 0 | 2 | 0 | 2
21 | C#CCN1c2nccnc2C(OC(=O)SCC)=C(c2c(Cl)ccc(Cl)c2C(F)(F)F)S1(=O)=O [Compound C85] | 7 | 7 | 9 | 6 | 10
22 | Cc1ccc(C2=C(OC(=O)C(C)C)c3nccnc3N(CC(F)F)S2(=O)=O)c(Cl)c1 [Compound C136, isobutyric acid 3-(2-chloro-4-methyl-phenyl)-1-(2,2-difluoro-ethyl)-2,2-dioxo-1,2-dihydro-2-λ-6-thia-1,5,8-triaza-naphthalen-4-yl ester] | 3 | 0 | 7 | 2 | 8
23 | CC(C)C(=O)OC1=C(c2c(F)cccc2C(F)(F)F)S(=O)(=O)N(CC(F)F)c2nccnc21 [Compound C77] | 10 | 9 | 10 | 9 | 10
24 | CC(C)(C)C(=O)OC1=C(c2cc(I)ccc2Cl)S(=O)(=O)N(CC(F)F)c2nccnc21 [Compound C55] | 7 | 2 | 8 | 2 | 7
25 | CC(C)C(=O)OC1=C(c2cc(C(F)(F)F)ccc2Cl)S(=O)(=O)N(CC(Cl)Cl)c2nccnc21 [Compound C115] | 8 | 1 | 6 | 5 | 9
26 | O=S1(=O)C(c2cc(I)ccc2Cl)=C(O)c2nccnc2N1CC(F)F [Compound D29] | 5 | 2 | 7 | 3 | 7
